According to US10092563B2, “Phosphatidylinositol 3-kinase inhibitors” (Gilead Sciences, Inc., priority 2014, dated 2018):

Columns and labels:
Assay in all cases: TR-FRET enzymatic assay of PI3K isoforms
Format in all cases: biochemical
PI3Kβ = PI3Kβ (Homo sapiens (Human), UniProt P42338); details: for PI3Kγ/PI3Kβ ratio: ratio of IC50 PI3Kγ to IC50 PI3Kβ (fold)
Protocol: (§1) The compounds of formula (I) were characterized for their enzymatic activity against the PI3K isoforms. The activities were measured using a time-resolved fluorescence resonance energy transfer (TR-FRET) assay.

PI3Kγ = PI3Kγ (Homo sapiens (Human), UniProt P48736); details: 2× Km ATP, 30 minutes at 25° C.
Sequence of PI3Kγ (P48736 whole entry): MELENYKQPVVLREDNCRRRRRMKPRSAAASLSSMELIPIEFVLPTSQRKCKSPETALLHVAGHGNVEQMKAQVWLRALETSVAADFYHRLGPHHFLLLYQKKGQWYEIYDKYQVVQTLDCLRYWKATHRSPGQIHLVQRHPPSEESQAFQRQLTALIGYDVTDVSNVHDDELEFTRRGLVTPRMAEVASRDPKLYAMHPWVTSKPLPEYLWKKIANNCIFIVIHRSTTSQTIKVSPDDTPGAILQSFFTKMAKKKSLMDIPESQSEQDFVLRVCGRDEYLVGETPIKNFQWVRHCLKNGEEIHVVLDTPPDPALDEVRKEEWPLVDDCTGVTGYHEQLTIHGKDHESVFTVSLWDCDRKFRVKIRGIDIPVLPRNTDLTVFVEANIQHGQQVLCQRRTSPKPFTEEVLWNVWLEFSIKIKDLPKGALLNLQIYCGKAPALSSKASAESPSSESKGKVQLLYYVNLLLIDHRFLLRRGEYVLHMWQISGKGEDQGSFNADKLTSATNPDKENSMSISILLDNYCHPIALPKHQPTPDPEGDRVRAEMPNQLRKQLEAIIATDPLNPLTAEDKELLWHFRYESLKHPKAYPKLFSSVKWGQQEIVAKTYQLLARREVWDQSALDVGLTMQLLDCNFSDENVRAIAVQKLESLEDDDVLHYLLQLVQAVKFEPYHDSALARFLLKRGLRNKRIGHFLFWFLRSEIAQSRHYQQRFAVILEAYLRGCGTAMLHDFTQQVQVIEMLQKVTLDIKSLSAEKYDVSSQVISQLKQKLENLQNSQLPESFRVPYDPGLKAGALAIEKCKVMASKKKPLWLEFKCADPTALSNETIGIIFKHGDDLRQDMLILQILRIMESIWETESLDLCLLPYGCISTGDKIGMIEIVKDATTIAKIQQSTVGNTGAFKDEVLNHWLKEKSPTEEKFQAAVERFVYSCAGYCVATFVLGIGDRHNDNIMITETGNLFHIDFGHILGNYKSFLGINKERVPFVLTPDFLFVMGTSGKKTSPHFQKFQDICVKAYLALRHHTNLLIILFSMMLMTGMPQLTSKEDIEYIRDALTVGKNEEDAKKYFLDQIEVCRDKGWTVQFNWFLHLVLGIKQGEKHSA
Sequence of PI3Kγ (Q8WYR1 whole entry partner): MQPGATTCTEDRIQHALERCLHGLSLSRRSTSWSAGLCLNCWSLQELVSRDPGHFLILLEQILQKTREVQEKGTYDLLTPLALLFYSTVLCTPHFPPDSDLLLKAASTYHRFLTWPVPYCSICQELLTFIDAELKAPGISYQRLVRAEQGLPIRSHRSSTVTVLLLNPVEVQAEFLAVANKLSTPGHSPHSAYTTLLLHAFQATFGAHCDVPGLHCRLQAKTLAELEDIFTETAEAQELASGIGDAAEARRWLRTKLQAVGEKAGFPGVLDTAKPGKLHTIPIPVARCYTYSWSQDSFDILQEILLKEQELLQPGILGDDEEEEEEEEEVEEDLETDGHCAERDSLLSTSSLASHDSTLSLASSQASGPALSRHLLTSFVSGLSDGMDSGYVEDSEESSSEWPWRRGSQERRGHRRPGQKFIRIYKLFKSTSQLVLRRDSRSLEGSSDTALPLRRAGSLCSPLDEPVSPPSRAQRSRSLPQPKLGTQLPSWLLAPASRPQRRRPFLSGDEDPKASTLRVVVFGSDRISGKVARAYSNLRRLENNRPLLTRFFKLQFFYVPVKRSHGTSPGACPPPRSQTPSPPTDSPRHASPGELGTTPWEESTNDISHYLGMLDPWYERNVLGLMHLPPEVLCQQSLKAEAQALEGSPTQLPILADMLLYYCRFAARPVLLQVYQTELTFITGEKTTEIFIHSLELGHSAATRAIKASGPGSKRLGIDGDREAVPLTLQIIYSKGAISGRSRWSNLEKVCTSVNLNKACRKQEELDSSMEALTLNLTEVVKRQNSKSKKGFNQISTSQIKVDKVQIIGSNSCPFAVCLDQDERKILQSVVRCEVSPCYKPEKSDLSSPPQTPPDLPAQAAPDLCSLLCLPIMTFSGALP
Protocol: as §1

PI3Kδ = PI3Kδ (Homo sapiens (Human), UniProt O00329); details: 2× Km ATP, 30 minutes at 25° C.
Sequence of PI3Kδ (O00329 whole entry): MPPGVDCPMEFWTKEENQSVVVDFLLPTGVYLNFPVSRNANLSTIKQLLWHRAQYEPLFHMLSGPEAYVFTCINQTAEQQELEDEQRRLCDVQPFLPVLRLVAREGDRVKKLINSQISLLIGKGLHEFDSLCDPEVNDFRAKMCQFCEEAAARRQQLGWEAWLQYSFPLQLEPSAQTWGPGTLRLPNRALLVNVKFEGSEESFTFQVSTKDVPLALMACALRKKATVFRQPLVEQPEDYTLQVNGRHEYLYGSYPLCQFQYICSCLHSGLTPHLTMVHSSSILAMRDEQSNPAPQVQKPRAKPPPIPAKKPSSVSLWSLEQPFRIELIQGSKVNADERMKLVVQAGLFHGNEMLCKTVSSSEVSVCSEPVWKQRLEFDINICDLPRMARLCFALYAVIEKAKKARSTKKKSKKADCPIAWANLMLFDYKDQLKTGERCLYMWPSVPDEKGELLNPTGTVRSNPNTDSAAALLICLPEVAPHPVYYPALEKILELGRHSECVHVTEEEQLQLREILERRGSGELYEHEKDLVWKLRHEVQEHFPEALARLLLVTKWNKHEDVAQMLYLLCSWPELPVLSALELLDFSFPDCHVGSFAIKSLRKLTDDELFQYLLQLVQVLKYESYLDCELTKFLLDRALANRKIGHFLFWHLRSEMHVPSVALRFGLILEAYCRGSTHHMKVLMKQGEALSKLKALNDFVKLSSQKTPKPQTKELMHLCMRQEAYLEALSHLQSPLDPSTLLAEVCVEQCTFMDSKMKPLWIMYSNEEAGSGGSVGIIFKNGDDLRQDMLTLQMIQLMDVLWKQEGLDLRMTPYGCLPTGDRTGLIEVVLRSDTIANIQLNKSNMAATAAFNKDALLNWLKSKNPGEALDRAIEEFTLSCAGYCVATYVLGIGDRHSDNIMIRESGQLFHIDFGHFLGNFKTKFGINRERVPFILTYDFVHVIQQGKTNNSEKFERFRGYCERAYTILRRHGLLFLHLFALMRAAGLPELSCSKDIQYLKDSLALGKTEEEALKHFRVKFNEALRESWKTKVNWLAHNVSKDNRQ
Sequence of PI3Kδ (P27986 whole entry partner): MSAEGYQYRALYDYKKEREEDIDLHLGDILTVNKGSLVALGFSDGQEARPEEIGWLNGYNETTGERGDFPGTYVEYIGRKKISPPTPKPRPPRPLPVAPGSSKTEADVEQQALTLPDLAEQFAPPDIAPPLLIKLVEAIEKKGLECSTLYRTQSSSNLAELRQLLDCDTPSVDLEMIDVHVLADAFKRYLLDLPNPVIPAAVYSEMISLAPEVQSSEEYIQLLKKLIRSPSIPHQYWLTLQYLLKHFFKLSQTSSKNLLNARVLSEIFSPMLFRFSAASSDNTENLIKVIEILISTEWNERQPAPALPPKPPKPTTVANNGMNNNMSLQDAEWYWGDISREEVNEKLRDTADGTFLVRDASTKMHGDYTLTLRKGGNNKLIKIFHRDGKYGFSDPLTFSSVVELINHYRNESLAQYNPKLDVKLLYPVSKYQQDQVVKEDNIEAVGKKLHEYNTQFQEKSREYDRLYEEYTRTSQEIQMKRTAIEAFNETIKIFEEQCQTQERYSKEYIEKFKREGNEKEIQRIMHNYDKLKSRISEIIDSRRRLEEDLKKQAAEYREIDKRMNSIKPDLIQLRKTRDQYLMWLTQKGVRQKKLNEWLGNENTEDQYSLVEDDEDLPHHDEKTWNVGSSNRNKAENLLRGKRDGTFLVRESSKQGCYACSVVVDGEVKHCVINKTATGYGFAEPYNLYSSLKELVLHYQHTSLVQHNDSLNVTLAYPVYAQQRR
Protocol: as §1

Sequence of PI3Kβ (P42338 whole entry, canonical isoform): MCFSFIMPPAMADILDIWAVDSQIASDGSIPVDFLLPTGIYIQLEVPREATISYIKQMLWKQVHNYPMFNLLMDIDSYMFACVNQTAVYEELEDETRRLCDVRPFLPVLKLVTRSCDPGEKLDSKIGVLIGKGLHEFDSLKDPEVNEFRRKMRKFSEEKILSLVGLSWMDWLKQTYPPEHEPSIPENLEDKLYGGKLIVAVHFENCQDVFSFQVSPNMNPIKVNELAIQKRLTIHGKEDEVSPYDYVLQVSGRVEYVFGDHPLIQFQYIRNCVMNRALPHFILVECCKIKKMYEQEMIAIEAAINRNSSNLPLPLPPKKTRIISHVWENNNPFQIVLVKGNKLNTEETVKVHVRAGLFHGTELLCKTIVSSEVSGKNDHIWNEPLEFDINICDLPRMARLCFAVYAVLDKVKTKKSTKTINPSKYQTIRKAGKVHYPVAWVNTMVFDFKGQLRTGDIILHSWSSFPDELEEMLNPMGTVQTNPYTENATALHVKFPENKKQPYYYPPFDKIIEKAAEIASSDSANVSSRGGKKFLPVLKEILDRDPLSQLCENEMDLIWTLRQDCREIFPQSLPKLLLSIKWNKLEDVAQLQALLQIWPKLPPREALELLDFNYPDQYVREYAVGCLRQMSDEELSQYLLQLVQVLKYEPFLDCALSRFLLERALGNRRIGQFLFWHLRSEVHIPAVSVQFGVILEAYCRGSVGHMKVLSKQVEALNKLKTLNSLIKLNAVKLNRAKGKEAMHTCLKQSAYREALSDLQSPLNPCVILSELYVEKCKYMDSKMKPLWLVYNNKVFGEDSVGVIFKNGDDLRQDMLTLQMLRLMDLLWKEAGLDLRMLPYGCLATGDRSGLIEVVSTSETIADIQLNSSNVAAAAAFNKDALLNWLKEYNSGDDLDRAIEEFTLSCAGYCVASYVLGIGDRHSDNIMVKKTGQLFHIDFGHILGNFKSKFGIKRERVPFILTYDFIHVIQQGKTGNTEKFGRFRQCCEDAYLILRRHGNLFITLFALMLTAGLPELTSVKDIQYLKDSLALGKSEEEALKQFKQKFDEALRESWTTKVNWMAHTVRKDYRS
Sequence of PI3Kβ (P27986 whole entry partner, canonical isoform): as the sequence (P27986 whole entry partner) above

Row | IC50 (PI3Kβ) [nM] | IC50 (PI3Kγ) [nM] | IC50 (PI3Kδ) [nM] | PI3Kγ/PI3Kβ ratio (PI3Kβ) | PI3Kγ/PI3Kβ ratio (PI3Kβ; listed as (S)-2,4-diamino-6-(1-(5-chloro-4-oxo-3-phenyl-3,4-dihydroquinazolin-2-yl)ethyl)) | Compound
1 | 2 | 2600 | 6 | – | – | Cc1nc(N)nc(N[C@@H](C)c2nc3c(F)ccc(Cl)c3c(=O)n2C2[C@H]3CNC[C@@H]23)c1C#N (stereo partly drawn) [Compound 16, 4-(((1S)-1-(3-((1R,5S)-3-azabicyclo[3.1.0]hexan-6-yl)-5-chloro-8-fluoro-4-oxo-3,4-dihydroquinazolin-2-yl)ethyl)amino)-2-amino-6-methylpyrimidine-5-carbonitrile]
2 | 3 | 2800 | 4 | – | – | C[C@H](Nc1nc(N)nc(N)c1C#N)c1nc2c(F)ccc(Cl)c2c(=O)n1C1[C@H]2CNC[C@@H]12 (stereo partly drawn) [Compound 17, 4-(((1S)-1-(3-((1R,5S)-3-azabicyclo[3.1.0]hexan-6-yl)-5-chloro-8-fluoro-4-oxo-3,4-dihydroquinazolin-2-yl)ethyl)amino)-2,6-diaminopyrimidine-5-carbonitrile]
3 | – | > 10000 | 830 | – | – | C[C@H](Nc1nc(N)nc(N)c1C#N)c1nc2cccc(Cl)c2c(=O)n1[C@@H]1CCCNC1 [Compound 27, 2,4-diamino-6-(((S)-1-(5-chloro-4-oxo-3-((R)-piperidin-3-yl)-3,4-dihydroquinazolin-2-yl)ethyl)amino)pyrimidine-5-carbonitrile]
4 | – | – | – | 0.6 | less than 1 | C[C@H](Nc1nc(N)nc(N)c1C#N)c1nc2cccc(Cl)c2c(=O)n1-c1ccccc1 [Compound X, (S)-2,4-diamino-6-((1-(5-chloro-4-oxo-3-phenyl-3,4-dihydroquinazolin-2-yl)ethyl)amino)pyrimidine-5-carbonitrile, reference compound]
